Reference: article PMC8309046 (Pharmaceutics, 2021)
Structures can show the parent of a compound that is named as a salt. Where two headings read alike, the source gives them in different places.

Legend:
[1] = system: SARS-CoV-2 protease; details: LOPAC1280 screen, FRET-based reporter; cited from earlier work
[2] = molecular target: T1, PptT (Mycobacterium tuberculosis, UniProt O33336); assay: LOPAC1280 single-point BpsA (indigoidine) end-point screen for PptT inhibitors; format: biochemical; details: for % Activity in PptT Screen / activity at 20 µM: single concentration (20 µM per Figure S4), 0.4 µM PptT, 0.6 µM apo-BpsA, 10 µM CoA, A590 relative to no-inhibitor positive controls
T1 sequence (O33336 whole entry): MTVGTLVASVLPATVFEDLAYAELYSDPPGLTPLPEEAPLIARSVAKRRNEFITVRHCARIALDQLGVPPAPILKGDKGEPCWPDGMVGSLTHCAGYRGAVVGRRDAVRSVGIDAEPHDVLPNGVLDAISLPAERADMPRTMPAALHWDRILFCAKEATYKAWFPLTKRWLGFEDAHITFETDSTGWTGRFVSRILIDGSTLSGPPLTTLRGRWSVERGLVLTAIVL

[3] = molecular target: T2, holo-BpsA (Streptomyces lavendulae, UniProt Q1MWN4); assay: Counter-screen against pre-activated holo-BpsA (indigoidine synthesis); format: biochemical; details: for Inhibition of holo-BpsA: re-screen at higher concentration of 40 µM; for Inhibition of indigoidine synthesis by holo-BpsA in LOPAC1280 counter-screen: 0.6 µM holo-BpsA, no PPTase, screening concentration; for inhibition at 40 µM: read-out: Inhibition of holo-BpsA
T2 construct: made in house; host or cells: E. coli BL21(DE3) ΔentD
T2 sequence (Q1MWN4 1-1282): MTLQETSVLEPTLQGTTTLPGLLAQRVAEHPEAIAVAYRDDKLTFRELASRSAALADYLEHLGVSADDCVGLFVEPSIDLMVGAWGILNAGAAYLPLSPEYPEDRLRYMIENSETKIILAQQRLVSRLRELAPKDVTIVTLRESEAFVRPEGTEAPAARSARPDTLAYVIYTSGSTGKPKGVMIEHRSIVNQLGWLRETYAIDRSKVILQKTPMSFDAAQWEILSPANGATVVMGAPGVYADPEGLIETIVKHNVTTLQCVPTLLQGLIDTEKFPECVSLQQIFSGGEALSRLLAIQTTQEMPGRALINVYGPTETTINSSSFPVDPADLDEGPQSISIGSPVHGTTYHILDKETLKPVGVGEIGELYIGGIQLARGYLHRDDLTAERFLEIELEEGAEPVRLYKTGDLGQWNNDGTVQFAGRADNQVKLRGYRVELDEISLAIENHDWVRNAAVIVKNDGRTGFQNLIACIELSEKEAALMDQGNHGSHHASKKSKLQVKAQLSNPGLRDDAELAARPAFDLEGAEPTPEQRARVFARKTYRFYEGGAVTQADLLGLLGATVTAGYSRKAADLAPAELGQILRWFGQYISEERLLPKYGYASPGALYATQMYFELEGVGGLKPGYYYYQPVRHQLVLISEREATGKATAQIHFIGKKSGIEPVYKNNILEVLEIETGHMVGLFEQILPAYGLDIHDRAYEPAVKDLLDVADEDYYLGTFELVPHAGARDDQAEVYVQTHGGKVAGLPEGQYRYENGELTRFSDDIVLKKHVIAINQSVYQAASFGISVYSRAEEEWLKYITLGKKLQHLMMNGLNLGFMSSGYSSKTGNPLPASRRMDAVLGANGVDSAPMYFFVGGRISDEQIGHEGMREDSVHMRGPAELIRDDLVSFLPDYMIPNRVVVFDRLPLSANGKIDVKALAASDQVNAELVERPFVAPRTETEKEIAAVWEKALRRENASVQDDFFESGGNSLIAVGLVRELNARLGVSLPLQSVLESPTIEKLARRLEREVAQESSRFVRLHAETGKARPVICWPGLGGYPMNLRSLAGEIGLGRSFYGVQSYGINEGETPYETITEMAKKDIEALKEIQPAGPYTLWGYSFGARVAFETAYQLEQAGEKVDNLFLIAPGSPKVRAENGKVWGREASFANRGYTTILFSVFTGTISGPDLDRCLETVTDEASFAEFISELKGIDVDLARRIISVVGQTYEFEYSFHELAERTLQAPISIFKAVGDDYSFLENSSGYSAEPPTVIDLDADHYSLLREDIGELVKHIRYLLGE
Method: The Sigma-Aldrich LOPAC^1280 collection was first diluted to a working stock of […] per compound. To screen the collection, 88 reactions at a time were established in columns 1–11 of a standard 96 well-plate. Each was prepared from 30 µL of reaction mix comprising 50 mM Tris-Cl (pH 8.0), 0.01% (v/v) Triton-X, 10 mM MgCl2, 5 mM ATP, 5 mM L-glutamine and 10 µM CoA. Next, a CyBio liquid handler was used to pin 2 µL of compound into columns 2–11 and 2 µL of DMSO into column 1. To screen for PptT inhibitors, 10 µL of PPTase mix comprising a freshly-prepared stock of 0.4 µM PptT and 50 mM Tris-Cl (pH 8.0) was added to wells A1–C1 and columns 2–11 (see Supplementary Figure S1). To initiate indigoidine synthesis, 10 µL of 0.6 µM apo-BpsA in 50 mM Tris-Cl (pH 8.0) was added to each well. To screen for holo-BpsA inhibitors, an equivalent screening format was established only using 0.6 µM holo-BpsA and with no PPTase mix added. Each plate was then shaken at 1000 rpm for 10 s and incubated at room temperature for 1 h. Indigoidine was then resolubilised by the addition of 200 µL DMSO and incubation at 37 °C with shaking at 200 rpm for 0.5 h. A Perkin Elmer Enspire plate reader was then used to record the absorbance readings at 590 nm. The Python package Pandas was used to process the data, which was then visualised using the Python package Seaborn.

[4] = molecular target: T1, PptT; format: biochemical; details: kinetic assay, serial dilution 200 µM to 0.2 µM; 0.4 µM PptT, 0.6 µM apo-BpsA
[5] = molecular target: T1, PptT; assay: BpsA end-point dose-response assay of PptT inhibition (EC50); format: biochemical; details: for EC50: end-point assay, two-fold serial dilution from 40 µM, 0.4 µM PptT, 0.6 µM apo-BpsA, three independent replicates ± standard error
[6] = system: PPTases; design: method as in PMID 20094656, PMID 21466506, PMID 33118808; details: cited from earlier work
[7] = system: M. tuberculosis PptT; design: method as in PMID 24963544; details: cited from earlier work
[8] = system: Sfp; design: method as in PMID 24192555; details: cited from earlier work

| Compound | Hit as SARS-CoV-2 protease inhibitor [1] | % Activity in PptT Screen [2] [%] | EC50 [5] [µM] | other results |
| --- | --- | --- | --- | --- |
| NC(Cc1cc(O)c(O)cc1O)C(=O)O (racemic) [6-Hydroxy-DL-DOPA] | strong protease inhibitors | 26 | – | Inhibition of holo-BpsA [3]: less than 15% |
| O=C(O)c1cc[c]([Hg][Cl])cc1 [4-chloromercuribenzoic acid] | – | – | – | Inhibition of indigoidine synthesis by holo-BpsA in LOPAC1280 counter-screen [3]: inhibiting indigoidine synthesis |
| O=Nc1ccc2oc(=O)ccc2c1 [6-Nitroso-1,2-benzopyrone] | strong protease inhibitors | 12 | 8.3 ± 1.7 | EC50 [4]: 4.4 ± 1.2 µM; Inhibition of holo-BpsA [3]: less than 15%; Activity in vitro against PPTases [6]: activity in vitro against numerous PPTases |
| CCCCCCCCCCC/C=C\C(C)(C)/C=C\CCCC(=O)O [7,7-Dimethyl-(5z,8z)-eicosadienoic acid] | – | 49 | – | Inhibition of holo-BpsA [3]: less than 15% |
| Br.CCCN(CCC)C1CCc2cccc(O)c2C1 (stereo not shown) [8-hydroxy-DPAT hydrobromide] | – | – | – | Inhibitory activity on PptT in serial dilution (result in words) ([5]; two-fold serial dilutions (40 µM to 0.3 µM) in PptT/apo-BpsA reaction mix): no inhibitory activity was observed |
| O=C(O)C1=CC(=C(c2ccc(O)c(C(=O)O)c2)c2ccc(O)c(C(=O)O)c2)C=CC1=O [Aurintricarboxylic acid] | strong protease inhibitors | – | 4.8 ± 0.9 | activity at 20 µM [2]: 32% |
| CC(C)(C)c1ccc(S(=O)(=O)/C=C/C#N)cc1 [Bay 11-7085] | strong protease inhibitors | 10 | 7.4 ± 0.4 | – |
| CCN(CC)C(=S)SSC(=S)N(CC)CC [Disulfiram] | strong protease inhibitors | – | 6 ± 1.5 | activity at 20 µM [2]: 9%; inhibition at 40 µM [3]: < 15% |
| O=C1Nc2ccc(I)cc2/C1=C/c1cc(Br)c(O)c(Br)c1 [GW5074] | – | 43 | – | – |
| COc1cc(/C=C(\C#N)C(=O)c2ccc(O)c(O)c2)cc(I)c1O [I-OMe-Tyrphostin AG 538] | – | 40 | – | – |
| N=C1Sc2ccccc2C2=NCCCN12 [PD 404, 182] | strong protease inhibitors | 35 | – | – |
| Nc1c(S(=O)(=O)O)cc(Nc2ccc(Nc3nc(Cl)nc(Nc4cccc(S(=O)(=O)O)c4)n3)c(S(=O)(=O)O)c2)c2c1C(=O)c1ccccc1C2=O [Reactive Blue 2] | – | – | – | activity at 20 µM [2]: 38% |
| CC(=O)c1c(O)c(C)c(O)c(Cc2c(O)c3c(c(C(=O)/C=C/c4ccccc4)c2O)OC(C)(C)C=C3)c1O [Rottlerin] | – | – | – | activity at 20 µM [2]: 48% |
| Br.CN=c1nc(-c2ccccc2)n(-c2ccccc2)s1 [SCH-202676 hydrobromide] | – | 0.7 | 5.9 ± 0.1 | Inhibition of holo-BpsA [3]: noticeably inhibitory |
| C[n+]1cc2c3c(ccc2c2ccc4cc5c(cc4c21)OCO5)OCO3 [Sanguinarine chloride] | strong protease inhibitors | – | – | Reported as inhibitor of M. tuberculosis PptT [7]: inhibitor; Reported as inhibitor of Sfp [8]: inhibitor; activity at 20 µM [2]: 44%; inhibition at 40 µM [3]: < 15% |
| N#C/C(=C\c1ccc(O)c(O)c1)C(=O)NCCCNC(=O)/C(C#N)=C/c1ccc(O)c(O)c1 [Tyrphostin AG 537] | – | 35 | 5.9 ± 0.5 | – |
| N#C/C(=C\c1ccc(O)c(O)c1)C(=O)c1ccc(O)c(O)c1 [Tyrphostin AG 538] | – | 24 | 6.4 ± 0.7 | – |
| COc1ccc2c(c1)CC[C@@H]1[C@@H]2CC[C@]2(C)[C@@H](NCCCCCCN3C(=O)C=CC3=O)CC[C@@H]12 [U-73122] | strong protease inhibitors | 44 | 8.1 ± 0.5 | – |
| CN(C)CC/C=C1/c2ccccc2Sc2ccc(Cl)cc21 [chlorprothixene hydrochloride] | – | – | – | Registered as inhibitor of PptT in primary screen (result in words) ([2]; LOPAC1280 primary screen): did not register as an inhibitor of PptT; Inhibition of indigoidine synthesis by holo-BpsA in LOPAC1280 counter-screen [3]: inhibiting indigoidine synthesis |
| O=c1c2ccccc2[se]n1-c1ccccc1 [ebselen] | – | – | – | Inhibition of indigoidine synthesis by holo-BpsA in LOPAC1280 counter-screen [3]: inhibiting indigoidine synthesis |
| Cc1ccc(C(=O)Nc2ccc(S(=O)(=O)O)c3cc(S(=O)(=O)O)cc(S(=O)(=O)O)c23)cc1NC(=O)c1cccc(NC(=O)Nc2cccc(C(=O)Nc3cc(C(=O)Nc4ccc(S(=O)(=O)O)c5cc(S(=O)(=O)O)cc(S(=O)(=O)O)c45)ccc3C)c2)c1 [suramin hexasodium] | – | – | – | Inhibition of indigoidine synthesis by holo-BpsA in LOPAC1280 counter-screen [3]: inhibiting indigoidine synthesis |
| Tyrphostin AG 808 | – | 34 | – | – |
